Where two headings read alike, the source gives them in different places.
How the values were obtained:
[1] = tested on: A375 melanoma cells and COLO205 colon cancer cells; test: Cell proliferation assay (CellTiter-96); format: cell-based; conditions: Homo sapiens; A375 or COLO205, 72 hours treatment; read-out: Cytotoxicity IC50 for A375 or COLO205
Protocol: The anti-proliferative activities of compounds of formula (I) against B-Raf(V600E) mutant human cancer cell lines, A375 melanoma cells and COLO205 colon cancer cells, were measured using the CellTiter™-96 assay kit (Promega) following the manufacturer's instructions. In brief, the cells were maintained in DMEM containing 10% FCS and incubated at 37° C. in 5% CO2 atmosphere. Cells were plated at a density of 2,000 cells/well on a 96-well plate and incubated for 24 h. Then, these cells were treated with different concentrations of the test compounds and incubated for another 72 hours. At the end of the incubation, CellTiter™-96 Aqueous One Solution Reagent (Promega) was added and incubated for another 4.0 hours. Cell viability was determined by measuring absorbance at 490 nm using EMax® microplate reader (Molecular Devices). Data were processed and analyzed using GraphPad Prism.

B-Raf(V600E) kinase = biological target: T1, B-Raf(V600E) kinase (Homo sapiens, UniProt P15056, V600E); test: B-Raf(V600E) kinase assay ([33P] incorporation into MEK1(K97R)); format: biochemical; conditions: class symbols; 8 μM ATP; read-out: IC50 against B-Raf(V600E) kinase
T1 construct: purchased Upstate Biotechnology
T1 sequence (P15056 whole entry V600E): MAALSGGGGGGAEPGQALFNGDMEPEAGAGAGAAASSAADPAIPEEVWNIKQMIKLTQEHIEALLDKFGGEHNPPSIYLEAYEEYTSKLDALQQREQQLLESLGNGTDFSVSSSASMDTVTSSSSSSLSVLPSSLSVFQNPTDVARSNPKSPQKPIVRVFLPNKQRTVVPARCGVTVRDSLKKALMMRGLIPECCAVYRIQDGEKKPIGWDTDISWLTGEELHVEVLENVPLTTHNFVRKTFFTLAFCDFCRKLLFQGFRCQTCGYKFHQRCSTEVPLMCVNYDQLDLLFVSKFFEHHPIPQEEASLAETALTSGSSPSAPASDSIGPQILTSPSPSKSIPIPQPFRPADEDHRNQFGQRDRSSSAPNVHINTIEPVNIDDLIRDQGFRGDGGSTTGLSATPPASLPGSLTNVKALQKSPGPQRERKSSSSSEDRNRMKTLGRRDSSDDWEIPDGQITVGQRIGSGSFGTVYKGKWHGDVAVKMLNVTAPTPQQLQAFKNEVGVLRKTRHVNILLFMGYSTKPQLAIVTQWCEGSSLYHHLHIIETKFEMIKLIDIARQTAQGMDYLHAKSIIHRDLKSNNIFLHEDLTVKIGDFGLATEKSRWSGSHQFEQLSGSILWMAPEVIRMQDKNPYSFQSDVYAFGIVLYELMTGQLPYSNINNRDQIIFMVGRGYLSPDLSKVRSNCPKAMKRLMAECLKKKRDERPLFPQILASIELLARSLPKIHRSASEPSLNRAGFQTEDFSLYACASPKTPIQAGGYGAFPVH
Protocol: (§1) Inhibition of kinase activity by a test compound disclosed herein was estimated by quantifying the amount of [^33P] incorporation of a substrate in the presence of the test compound. Standard assay conditions were 5 ng of recombinant B-Raf(V600E) kinase (Upstate Biotechnology) with 500 ng MEK1 (K97R) in assay buffer (8 μM ATP, 0.5 μCi [^33P] ATP (specific activity 3000 Ci/mmol, PerkinElmer), 50 mM Tris/HCl (pH7.5), and 1 mM EGTA, 1 mM Na3VO4, 1% 2-mercaptoethanol, 0.1% Brij 35, and 0.2 mg/ml BSA), and the test compound (diluted with 4% DMSO) or DMSO alone (as a control) in a final volume of 25 μL. Reactions were incubated at 30° C. for 30 min and stopped by adding 3% phosphoric acid, harvested onto a 96-well GF/B UniFilter (PerkinElmer) using a unifilter harvester (PerkinElmer), and counted with a TopCount microplate scintillation counter (PerkinElmer). The IC50 values of inhibitors were determined after carrying out assays at 3-fold serially diluted concentrations of each compound in duplication. The results were analyzed using linear regression software (GraphPad Prism 4; GraphPad Software Inc.).

B-Raf kinase = biological target: T2, B-Raf kinase (Homo sapiens, UniProt P15056); test: B-Raf kinase assay ([33P] incorporation into MEK1(K97R)); format: biochemical; conditions: class symbols; 8 μM ATP; read-out: IC50 against B-Raf kinase
T2 construct: purchased Upstate Biotechnology
T2 sequence (P15056 whole entry): as the sequence (P15056 whole entry V600E) above, with E600V counted along it
Protocol: as §1, with “B-Raf” for “B-Raf(V600E)”, “MEK1(K97R)” for “MEK1 (K97R)”, “[^33P]ATP” for “[^33P] ATP”, “BSA)” for “BSA), and the test compound (diluted with 4% DMSO) or DMSO alone (as a control)”

C-Raf kinase = biological target: T3, C-Raf kinase (Homo sapiens, UniProt P04049); test: C-Raf kinase assay ([33P] incorporation into MEK1(K97R)); format: biochemical; conditions: class symbols; 8 μM ATP; read-out: IC50 against C-Raf kinase
T3 construct: purchased Upstate Biotechnology
T3 sequence (P04049 whole entry): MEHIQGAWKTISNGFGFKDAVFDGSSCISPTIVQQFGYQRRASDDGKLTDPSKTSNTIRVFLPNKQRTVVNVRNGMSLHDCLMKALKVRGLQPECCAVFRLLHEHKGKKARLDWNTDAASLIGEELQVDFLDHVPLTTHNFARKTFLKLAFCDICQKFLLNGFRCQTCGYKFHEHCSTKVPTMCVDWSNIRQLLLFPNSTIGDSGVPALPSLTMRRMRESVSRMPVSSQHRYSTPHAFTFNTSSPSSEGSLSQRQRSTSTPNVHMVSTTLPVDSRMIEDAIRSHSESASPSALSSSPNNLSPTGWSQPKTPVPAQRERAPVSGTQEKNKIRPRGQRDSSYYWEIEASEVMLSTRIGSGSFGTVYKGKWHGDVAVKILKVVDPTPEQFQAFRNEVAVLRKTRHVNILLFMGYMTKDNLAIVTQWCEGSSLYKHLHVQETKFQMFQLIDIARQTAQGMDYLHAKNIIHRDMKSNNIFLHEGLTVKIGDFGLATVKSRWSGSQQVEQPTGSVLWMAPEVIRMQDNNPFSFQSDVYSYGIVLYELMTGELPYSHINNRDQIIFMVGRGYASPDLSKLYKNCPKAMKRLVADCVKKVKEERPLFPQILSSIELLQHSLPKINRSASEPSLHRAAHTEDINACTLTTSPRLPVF
Protocol: as §1, with “were 2” for “were 5”, “recombinant C-Raf” for “recombinant B-Raf(V600E)”

EGFR kinase = biological target: T4, EGFR kinase (Homo sapiens, UniProt P00533); test: EGFR radiometric kinase assay; format: biochemical; conditions: 100 μM ATP, read-out: Inhibition activity, IC50 EGFR
T4 construct: EGFR kinase domain alone, Millipore; purchased Millipore
T4 sequence (P00533 712-979 limits assumed): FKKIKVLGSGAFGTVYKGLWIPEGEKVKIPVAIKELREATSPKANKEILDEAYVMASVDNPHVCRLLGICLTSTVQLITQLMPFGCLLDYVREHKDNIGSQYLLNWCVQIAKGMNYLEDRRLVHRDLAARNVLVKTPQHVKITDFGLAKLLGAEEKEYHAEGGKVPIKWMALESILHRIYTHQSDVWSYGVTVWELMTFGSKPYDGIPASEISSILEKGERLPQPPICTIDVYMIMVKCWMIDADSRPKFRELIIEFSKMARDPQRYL
Protocol: (§2) The inhibitory activity against VEGFR2 or EGFR was determined by radiometric kinase assay. The experimental condition for VEGFR2 kinase assay was 6.25 ng of recombinant VEGFR2 kinase (VEGFR2 kinase domain alone, Millipore), 5 μg of substrate Poly(Glu-Tyr) (4:1, Sigma), kinase reaction buffer (20 mM MOPS pH 7.0, 1 mM EDTA, 5% glycerol, 0.01% Brij-35, 0.1% β-mercaptoethanol, 1 mg/mL BSA, 100 μM ATP, and 0.1 μCi per well [^33P] ATP (specific activity 3000 Ci/mmol, PerkinElmer)), and the test compound (diluted with 4% DMSO) or DMSO alone (as a control) in a final volume of 25 μL. Reactions were incubated at 30° C. for 30 min and stopped by adding 3% phosphoric acid, harvested onto a 96-well GF/B UniFilter (PerkinElmer) using a unifilter harvester (PerkinElmer), and counted with a TopCount microplate scintillation counter (PerkinElmer).
The experimental condition for EGFR kinase assay was 25 ng of EGFR kinase (EGFR kinase domain alone, Millipore), 3 μg of the substrate poly(Glu-Tyr), (Sigma), kinase reaction buffer (10 mM MOPS pH 7.0, 0.3 mM EDTA, 0.5% glycerol, 0.001% Brij-35, 10 mM MnCl2, 0.1 mg/ml BSA, 100 μM ATP, and 0.1 μCi per well [^33P]ATP (specific activity 3000 Ci/mmol, PerkinElmer)), and the test compound (diluted with 4% DMSO) or DMSO (as a control) in a final volume of 25 μL. Reactions were incubated at 30° C. for 30 min and stopped by adding 3% phosphoric acid, harvested onto a 96-well GF/B UniFilter (PerkinElmer) using a unifilter harvester (PerkinElmer), and counted with a TopCount microplate scintillation counter (PerkinElmer).
(§3) Results of inhibition activity against VEGFR2 and EGFR kinases by the selected compounds, which have IC50 values on B-Raf kinase <300 nM, are summarized in Table 6.

VEGFR2 kinase = biological target: T5, VEGFR2 kinase (Homo sapiens, UniProt P35968); test: VEGFR2 radiometric kinase assay; format: biochemical; conditions: given as bound; 100 μM ATP; read-out: Inhibition activity, IC50 VEGFR2
T5 construct: VEGFR2 kinase domain alone, Millipore; purchased Millipore
T5 sequence (P35968 834-1162 limits assumed): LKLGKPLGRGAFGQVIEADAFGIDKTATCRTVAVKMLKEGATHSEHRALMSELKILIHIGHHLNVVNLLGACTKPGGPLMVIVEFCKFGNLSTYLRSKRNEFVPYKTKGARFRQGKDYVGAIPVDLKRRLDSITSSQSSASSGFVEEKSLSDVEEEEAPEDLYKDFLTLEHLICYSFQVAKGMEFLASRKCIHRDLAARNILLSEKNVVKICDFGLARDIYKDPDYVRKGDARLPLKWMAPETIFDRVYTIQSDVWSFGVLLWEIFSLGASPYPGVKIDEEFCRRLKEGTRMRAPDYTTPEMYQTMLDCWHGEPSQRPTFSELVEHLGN
Protocol: as §2, §3

IC50 (B-Raf(V600E) kinase) [nM]	IC50 (B-Raf kinase) [nM]	IC50 (C-Raf kinase) [nM]	IC50 (EGFR kinase; class symbols) [nM]	IC50 (VEGFR2 kinase) [nM]	IC50 (EGFR kinase; given as bound) [nM]	SMILES	IC50 [1] [nM]
< 300	300 to 1000	< 300	1000 to 3000	> 3000	–	CCCS(=O)(=O)Nc1ccc(F)c(Nc2ncnc3ccc(-c4ccc(OC)nc4)cc23)c1F [compound 27, N-(2,4-difluoro-3-(6-(6-methoxypyridin-3-yl)quinazolin-4-ylamino)phenyl)propane-1-sulfonamide]	< 2000
< 300	< 300	1000 to 10000	300 to 1000	> 3000	–	CCCS(=O)(=O)Nc1ccc(F)c(Nc2ncnc3ccc(-c4ccc(OCCN(C)C)nc4)cc23)c1F [compound 35, N-(3-(6-(6-(2-(dimethylamino)ethoxy)-pyridin-3-yl)quinazolin-4-ylamino)-2,4-difluorophenyl)propane-1-sulfonamide]	< 2000
< 300	< 300	1000 to 10000	–	> 3000	> 3000	CCCS(=O)(=O)Nc1ccc(F)c(Nc2ncnc3ccc(-c4cccc(OCCN(C)C)n4)cc23)c1F [compound 39, N-(3-(6-(6-(2-(dimethylamino)ethoxy)-pyridin-2-yl)quinazolin-4-ylamino)-2,4-difluorophenyl)propane-1-sulfonamide]	< 2000
300 to 1000	300 to 1000	300 to 1000	–	–	–	CCCS(=O)(=O)Nc1ccc(F)c(Nc2ncnc3ccc(-c4ccc(N(C)C)nc4)cc23)c1F [compound 54, N-(3-(6-(6-(dimethylamino)pyridin-3-yl)quinazolin-4-ylamino)-2,4-difluorophenyl)propane-1-sulfonamide]	–

The next lines start with the molecule.

SMILES	IC50 (B-Raf(V600E) kinase) [nM]	IC50 (B-Raf kinase) [nM]	IC50 (C-Raf kinase) [nM]	IC50 (EGFR kinase; class symbols) [nM]	IC50 (VEGFR2 kinase) [nM]	IC50 (EGFR kinase; given as bound) [nM]	IC50 [1] [nM]
CCCS(=O)(=O)Nc1ccc(F)c(Nc2ncnc3ccc(-c4cccc(OCCOC)n4)cc23)c1F [compound 38, N-(2,4-difluoro-3-(6-(6-(2-methoxyethoxy)pyridin-2-yl)quinazolin-4-ylamino)phenyl)propane-1-sulfonamide]	< 300	< 300	300 to 1000	1000 to 3000	> 3000	–	< 2000
CCCS(=O)(=O)Nc1ccc(F)c(Nc2ncnc3cc(OCCN4CCOCC4)c(-c4cccnc4F)cc23)c1F [compound 8, N-(2,4-difluoro-3-(6-(2-fluoropyridin-3-yl)-7-(2-morpholinoethoxy)quinazolin-4-ylamino)phenyl)propane-1-sulfonamide]	< 300	< 300	300 to 1000	–	> 3000	> 3000	< 2000
CCCS(=O)(=O)Nc1ccc(F)c(Nc2ncnc3ccc(-c4cnc(OC)c([N+](=O)[O-])c4)cc23)c1F [compound 58, N-(2,4-difluoro-3-(6-(6-methoxy-5-nitropyridin-3-yl)quinazolin-4-ylamino)phenyl)propane-1-sulfonamide]	< 300	< 300	< 300	–	> 3000	> 3000	< 2000
CCCS(=O)(=O)Nc1ccc(F)c(Nc2ncnc3ccc(-c4ccncc4)cc23)c1F [compound 12, N-(2,4-difluoro-3-(6-(pyridin-4-yl)-quinazolin-4-ylamino)phenyl)propane-1-sulfonamide]	< 300	< 300	< 300	300 to 1000	> 3000	–	< 2000
CCCS(=O)(=O)Nc1ccc(F)c(Nc2ncnc3ccc(-c4cn[nH]c4)cc23)c1F [compound 4, N-(3-(6-(1H-pyrazol-4-yl)quinazolin-4-ylamino)-2,4-difluorophenyl)propane-1-sulfonamide]	< 300	< 300	< 300	300 to 1000	> 3000	–	–
CCCS(=O)(=O)Nc1ccc(F)c(C(=O)c2ncnc3ccc(-c4cccnc4F)cc23)c1F [compound 48, N-(2,4-difluoro-3-(6-(2-fluoropyridin-3-yl)quinazoline-4-carbonyl)phenyl)propane-1-sulfonamide]	< 300	< 300	< 300	–	> 3000	> 3000	–
CCCS(=O)(=O)Nc1ccc(F)c(Nc2ncnc3ccc(-c4cnc(N(C)C)nc4)cc23)c1F [compound 51, N-(3-(6-(2-(dimethylamino)pyrimidin-5-yl)quinazolin-4-ylamino)-2,4-difluorophenyl)propane-1-sulfonamide]	300 to 1000	300 to 1000	1000 to 10000	–	–	–	–
CCCS(=O)(=O)Nc1ccc(F)c(Nc2ncnc3ccc(-c4cccnc4F)cc23)c1Cl [compound 9, N-(2-chloro-4-fluoro-3-(6-(2-fluoropyridin-3-yl)quinazolin-4-ylamino)phenyl)propane-1-sulfonamide]	1000 to 10000	1000 to 10000	1000 to 10000	–	–	–	–

From patent publication US9321762B2, “Quinazoline compounds, method for preparing the same and use thereof” (DEVELOPMENT CENTER FOR BIOTECHNOLOGY, priority 2013, dated 2016)
